Data on eight molecules can be found in patent EP0039857A1, “Preparation for the care of the skin” (Henkel Kommanditgesellschaft auf Aktien, priority 1980, dated 1981).

Experiment [1] relates to Esterase aus Schweineleber (Carboxylic-esterhydrolase EC 3.1.1.1). Briefly: Enzyme inhibition test, esterase (acidimetric comparison with control). The class given is biochemical, Schwein. The following applies: 2 500 ppm test substance; substrate Citronensäuretriethylester; enzyme 1 mg in 16 ml. On the procedure: (§1) Zur Feststellung der enzyminhibierenden Wirksamkeit wurde folgende Testmethodik verwendet. Es wurden jeweils 0,2 Mol in 10 bis 20 ml physiologischer NatriumchloridLösung Substrat eingesetzt. Als Testenzyme dienten: • Esterase aus Schweineleber (Carboxylic-esterhydrolase EC 3.1.1.1) • Spezifische Aktivität: circa 100 U/mg, Einsatzkonzentration: 1 mg in 16 ml Lösung. • Als Substrat diente Citronensäuretriethylester. • Lipase aus Rhizopus arrhizus (Triacylglyceroacylhydrolase EC 3.1.1.3) • Spezifische Aktivität: circa 1 200 U/mg, Einsatzkonzentration: 0,25 mg in 20 ml Lösung • Als Substrat diente Olivenöl. Zur Stabilisierung der Emulsion wurde Natriumdesoxycholat und Gummi arabicum verwendet. Die Hemmwerte wurden bestimmt durch azidimetrischen Vergleich der Kontrolle mit der durch die Prüfsubstanz gehemmten Reaktion und in % ausgedrückt. Als Konzentration für die Hemmsubstanzen wurden 2 500 ppm gewählt.

For experiment [2], the target named is T1, Lipase aus Rhizopus arrhizus (Triacylglyceroacylhydrolase EC 3.1.1.3) (Rhizopus oryzae, UniProt P61872).
T1 construct: Lipase aus Rhizopus arrhizus (Triacylglyceroacylhydrolase EC 3.1.1.3); host or cells: Rhizopus arrhizus (natural producer)
T1 sequence (P61872 96-392): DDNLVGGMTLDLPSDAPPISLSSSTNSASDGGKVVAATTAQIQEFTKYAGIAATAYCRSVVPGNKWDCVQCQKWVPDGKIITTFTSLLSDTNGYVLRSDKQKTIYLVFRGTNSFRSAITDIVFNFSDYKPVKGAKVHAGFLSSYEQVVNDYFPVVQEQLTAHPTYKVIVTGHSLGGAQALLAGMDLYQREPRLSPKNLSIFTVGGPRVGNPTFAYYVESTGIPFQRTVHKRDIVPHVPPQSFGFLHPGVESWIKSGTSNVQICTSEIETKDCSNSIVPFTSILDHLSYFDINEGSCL
Briefly: Enzyme inhibition test, lipase (acidimetric comparison with control). The class given is biochemical. The following applies: read-out: Hemmwerte in % gegen Lipase; for inhibition at 2500 ppm: substrate Olivenöl, enzyme 0,25 mg in 20 ml. On the procedure:
as §1

For the molecule `CCN(CC)C(=O)Cc1ccc(Cl)cc1` [Produkt A, p-Chlorphenylacet-diethylamid], the “Hemmwerte in % gegen Esterase” value in experiment [1] is on record as 77%. In addition, the inhibition at 2500 ppm in experiment [2] was 23%.

In the case of `CCOC(=O)C(O)(c1ccccc1)c1ccccc1` [Produkt H, Benzilsäure-ethylester], the “Hemmwerte in % gegen Esterase” value in experiment [1] was determined as 54%. Also, in experiment [2], the inhibition at 500 ppm is 28%.

In the case of `CCN(CC)C(=O)CC(c1ccccc1)c1ccccc1` [Produkt C, 3,3-Diphenyl-propionsäure-diethylamid], in experiment [1], the “Hemmwerte in % gegen Esterase” value came out at 57%. For the same molecule, in experiment [2], the inhibition at 2500 ppm came to 12%.

In the case of `CCN(CC)C(=O)Cc1ccc(OC)c(OC)c1` [Produkt B, 3,4-Dimethoxy-phenylacet-diethylamid], in experiment [1], the “Hemmwerte in % gegen Esterase” value is 60%. The inhibition at 2500 ppm in experiment [2] is 10%.

In the case of `CCN(CC)C(=O)C(C)(C)Sc1ccc(Cl)cc1` [Produkt E, 2-(p-Chlor-phenylthio)-2-methylpropionsäure-diethylamid], the “Hemmwerte in % gegen Esterase” value in experiment [1] is given as 30%. In addition, in experiment [2], the inhibition at 2500 ppm was 59%.

For the molecule `CCN(CC)C(=O)COc1ccc(Cl)cc1` [Produkt F, p-Chlor-phenoxyacet-diethylamid], in experiment [1], the “Hemmwerte in % gegen Esterase” value came out at 65%. Moreover, the inhibition at 2500 ppm in experiment [2] was determined as 10%.

Turning to `CCN(CC)C(=O)COc1ccc(C)c(C)c1` [Produkt G, 3,4-Dimethyl-phenoxyacet-diethylamid], the “Hemmwerte in % gegen Esterase” value in experiment [1] is 48%. For the same molecule, in experiment [2], the inhibition at 2500 ppm came out at 12%.

On to `CCN(CC)C(=O)C(C)(C)Oc1ccc(Cl)cc1` [Produkt D, 2-(p-Chlorphenoxy)-2-methylpropionsäure-diethylamid], for which, in experiment [1], the “Hemmwerte in % gegen Esterase” value is recorded as 11%. Besides, the inhibition at 2500 ppm in experiment [2] was determined as 52%.
